Entries after “also recorded” stand apart in the source; their conditions may differ. Ends that are not written are not given here.
System: serum IgG antibodies from patients with squamous cell carcinoma and from controls
Test: Immunoassay 2: serum IgG specific for biotinylated peptide antigens, squamous cell carcinoma patients vs persons not known to have cancer
Format: binding, human
Conditions: for sera from squamous cell carcinoma patients with IgG antibody level above control mean background+2.5 SD: 45 squamous cell carcinoma sera; for sera from persons not known to have cancer: IgG antibody level relative to control mean background+2.5 SD: control population
Procedure: Using immunoassay 2 (see Materials and Methods) the following results were obtained.
Immunoassay Method 2: Used to Detect Serum IgA, IgD, IgE, IgG, and IgM Antibodies Specific for Individual Peptide Antigens
NeutrAvidin^a conjugated paper disc, 6 mm.
Serum diluent: 10 mM sodium phosphate, pH 7.20, with 150 MM sodium chloride, and 0.20 mg/mL sodium azide.
NeutrAvidin^a coated white microtiter plate, stored in 10 mM Tris-HCl, pH 7.50, containing 600 mM sodium chloride and 0.2 mg/mL thimerosal.
Plate blocking solution: 10 mM sodium phosphate, pH 7.20, containing 150 mM sodium chloride, 100 mg/mL Triton X-405, and 0.2 mg/mL thimerosal.
Plate wash buffer: 20 mM Tris chloride, pH 7.4, containing 150 mM sodium chloride, 0.5 mg/mL Triton X-405 and 0.2 mg/mL thimerosal.
Peptide solution: 0.06 μg/mL peptide dissolved in 20 mM Tris chloride, pH 7.4, containing 600 mM sodium chloride, 30 mg/mL polyethylene glycol 4000, 1 mM ethylenediaminetetraacetic acid, 1 mM ethylene glycol-bis(§-aminoethyl ether)N,N,N′,N′-tetraacetic acid, 0.5 mg/mL Triton X405 and 0.2 mg/mL thimerosal.
Control peptide solution: 0.013 μg/mL control peptide dissolved in 20 mM Tris chloride, pH 7.4, containing 600 mM sodium chloride, 30 mg/mL polyethylene glycol 4000, 1 mM ethylenediaminetetraacetic acid, 1 mM ethylene glycol-bis(§-aminoethyl ether)N,N,N′,N′-tetraacetic acid, 0.5 mg/mL Triton X-405 and 0.2 mg/mL thimerosal.
Conjugate solution: 0.100 μg/mL alkaline phosphatase conjugated polyclonal goat anti human IgG dissolved in 20 mM Tris-HCl, pH 7.40, with 600 mM sodium chloride, 30.0 mg/mL PEG-4000, 3.0 mg/mL BSA, 0.5 mg/mL Triton X-405 and 0.20 mg/mL thimerosal.
Substrate solution: 25.2 μg/mL 4-methylumbelliferyl phosphate dissolved in 180 mM 2-amino-2-methyl-1-propanol, pH 9.50, containing 123 μM magnesium chloride.
Serum preparation: • 1. Add 100 μL serum to 15 NeutrAvidin^a coated paper discs in a suitably sized test tube. • 2. Incubate with gentle mixing at ambient temperature for 16-20 hours. • 3. Add 7.900 mL of serum diluent and mix gently for 30 minutes. • 4. Vortex the tube gently to completely release the serum from the discs. • 5. Remove the treated serum from the discs and transfer it to a suitable storage tube. • 6. Store the treated serum at 4 EC.
Assay procedure: • 1. Two days before assay, aspirate the storage solution from the NeutrAvidin^a coated white microtiter plate and add 200 μL plate blocking solution to each well. • 2. Cover the plate and incubate at ambient temperature for 16-20 hours. • 3. One day before assay. wash the blocked plate three times with plate wash buffer, approximately 275 μL per well per wash. […] Read the plate at 30 and 60 minutes in a fluorescence microtiter plate reader set at 365 nm excitation and 450 nm emission. […]

Substance	sera from squamous cell carcinoma patients with IgG antibody level above control mean background+2.5 SD	sera from persons not known to have cancer: IgG antibody level relative to control mean background+2.5 SD
aemNgSk: TROP1 peptide with the amino acid sequence aemNgSk (AEMNGSK; not fully specified)	6 of 45	one
rNvs: EGFR peptide (portion of SEQ ID NO: 67), deglycosylated asparagine N (RNVS; also: deglycosylated asparagine)	2 of 45	below the mean background+2.5 standard deviations; also recorded: below the mean background plus 4 standard deviations
